Drawing on ChEMBL document CHEMBL1681705, “Optimisation of ITK inhibitors through successive iterative design cycles” (Bioorg Med Chem Lett, 2011), this text covers IC50 for 54 compounds.

One test can be described thus: cells. The following applies: Homo sapiens, T-cell.
Test [1] addresses T1, Tyrosine-protein kinase ITK/TSK (Homo sapiens, UniProt Q08881).
T1 sequence (Q08881 whole entry): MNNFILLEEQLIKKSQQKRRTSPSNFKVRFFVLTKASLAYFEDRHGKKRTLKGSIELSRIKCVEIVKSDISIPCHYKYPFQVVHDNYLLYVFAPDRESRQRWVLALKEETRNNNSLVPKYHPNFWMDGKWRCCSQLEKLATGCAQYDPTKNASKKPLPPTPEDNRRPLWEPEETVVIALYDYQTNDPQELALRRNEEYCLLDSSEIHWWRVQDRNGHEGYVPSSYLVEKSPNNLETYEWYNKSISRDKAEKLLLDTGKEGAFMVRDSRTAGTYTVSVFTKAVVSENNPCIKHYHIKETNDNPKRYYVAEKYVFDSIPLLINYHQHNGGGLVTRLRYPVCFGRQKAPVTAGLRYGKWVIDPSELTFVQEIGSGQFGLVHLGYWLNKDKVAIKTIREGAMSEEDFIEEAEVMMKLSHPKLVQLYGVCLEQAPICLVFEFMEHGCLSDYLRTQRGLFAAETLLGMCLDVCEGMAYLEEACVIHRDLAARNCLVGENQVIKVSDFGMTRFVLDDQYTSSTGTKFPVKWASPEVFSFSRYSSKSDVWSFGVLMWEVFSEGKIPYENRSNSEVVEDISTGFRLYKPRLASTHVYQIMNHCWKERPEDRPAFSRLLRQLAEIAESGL
As to the kind of experiment: Inhibition of recombinant GST-tagged full-length ITK expressed in baculovirus expression system after 30 mins by scintillation proximity assay.

Bounds are passed on as bounds.

Description for cells: Antiinflammatory activity in human CD4+ T cell assessed as inhibition of anti-CD3/anti-CD28-induced IL-2 production treated 30 mins before anti-CD3/anti-CD28 challenge measured after 48 hrs by electro-chemiluminescence assay

`CCNC(=O)Nc1ccc2[nH]nc(-c3cc4ccc(C)cc4[nH]3)c2c1`: the 50% inhibitory concentration (IC50) in the test “cells” was 600 nM; in test [1], 83 nM.

With `Cc1ccc2cc(-c3n[nH]c4ccc(NC(=O)Nc5ccccc5)cc34)[nH]c2c1`, the IC50 in test [1] is 730 nM.

The compound `Cc1ccc2cc(-c3n[nH]c4ccc(NC5CCN(C)CC5)cc34)[nH]c2c1` showed an IC50 in the test “cells” of 120 nM.

Take `Cc1ccc2cc(-c3n[nH]c4ccc(NS(=O)(=O)c5sc(C)nc5C)cc34)[nH]c2c1`: the figures for the IC50 (in “cells”; in test [1]) were 2000 nM and 190 nM, respectively.

Consider `Cc1ccc2cc(-c3n[nH]c4ccc(NS(=O)(=O)c5ccccc5)cc34)[nH]c2c1`, for which the IC50 in “cells” came to 400 nM.

Compound `Cc1ccc2cc(-c3n[nH]c4ccc(NC(=O)CN(C)C)cc34)[nH]c2c1` gave an IC50 in the test “cells” of 600 nM.

For the compound `c1ccc2c(-c3cc4ccc(NCC5CCCCC5)cc4[nH]3)n[nH]c2c1`, half-maximal inhibition in “cells” (IC50) required 3800 nM.

On to `Cc1ccc2cc(-c3n[nH]c4ccc(NC5CCC5)cc34)[nH]c2c1`, for which, in test [1], the IC50 came out at 620 nM.

For the compound `O=C(NCc1ccccc1)c1ccc2cc(-c3n[nH]c4ccccc34)[nH]c2c1`, the IC50 in the test “cells” was determined as 4100 nM.

On to `Cc1ccc2cc(-c3n[nH]c4ccc(NS(=O)(=O)c5c(C)nn(C)c5C)cc34)[nH]c2c1`, for which the IC50 in the test “cells” stood at 1000 nM; in test [1], 85 nM.

`Cc1ccc2cc(-c3n[nH]c4ccc(NCc5ccccc5)cc34)[nH]c2c1`: the IC50 in test [1] is 530 nM.

Regarding `C(#Cc1ccc2cc(-c3n[nH]c4cccnc34)[nH]c2c1)CCc1cccnc1`, the IC50 in test [1] is 500 nM.

Turning to `Cc1ccc2cc(-c3n[nH]c4ccc(NC(=O)NCc5ccco5)cc34)[nH]c2c1`, the IC50 in test [1] was determined as 310 nM.

Regarding `Cc1ccc2cc(-c3n[nH]c4ccc(NC5CCN(Cc6ccccc6)C5)cc34)[nH]c2c1` (stereo not given), the IC50 is 350 nM in “cells” and 30 nM in test [1].

Take `CN(C)CCc1ccc2cc(-c3n[nH]c4cccnc34)[nH]c2c1`: the concentration for half-maximal inhibition (IC50) in test [1] amounted to 1000 nM.

Consider `c1ccc(Cc2ccc3cc(-c4n[nH]c5cccnc45)[nH]c3c2)cc1`, for which the IC50 in test [1] came out at 210 nM.

For `c1cnc2c(-c3cc4ccc(CC5CCCCC5)cc4[nH]3)n[nH]c2c1`, in test [1], the half-inhibitory concentration (IC50) stood at 690 nM.

For the compound `CN(Cc1ccccc1)C(=O)c1ccc2cc(-c3n[nH]c4ccccc34)[nH]c2c1`, the figures for the IC50 (in “cells”; in test [1]) were 9400 nM and 60 nM, respectively.

As to `COCCNc1ccc2cc(-c3n[nH]c4ccccc34)[nH]c2c1`, the IC50 in “cells” came out at 1200 nM; in test [1], 260 nM.

As to `Cc1ccc2cc(-c3n[nH]c4ccc(NS(=O)(=O)c5ccccc5F)cc34)[nH]c2c1`, in “cells”, the midpoint of inhibition, the IC50, lay at 1000 nM.

On to `Cc1ccc2cc(-c3n[nH]c4ccc(NS(=O)(=O)c5cn(C)cn5)cc34)[nH]c2c1`, for which the IC50 in “cells” turned out to be 400 nM; in test [1] it was 26 nM.

Turning to `Cc1ccc2cc(-c3n[nH]c4cc(NC(=O)C5CCCCC5)ccc34)[nH]c2c1`, the IC50 in test [1] is more than 50000 nM.

In the test “cells”, `COCC(=O)Nc1ccc2[nH]nc(-c3cc4ccc(OC)cc4[nH]3)c2c1` displayed an IC50 of 500 nM.

In the case of `NC(=O)Cc1ccc2cc(-c3n[nH]c4cccnc34)[nH]c2c1`, the IC50 in the test “cells” was 1000 nM; in test [1], 100 nM.

Regarding `Cc1ccc2cc(-c3n[nH]c4ccc(NS(=O)(=O)c5c(C)noc5C)cc34)[nH]c2c1`, the IC50 stood at 500 nM in the test “cells” and 130 nM in test [1].

With `CC(=O)Nc1ccc2[nH]nc(-c3cc4ccc(C)cc4[nH]3)c2c1`, the IC50 in “cells” was determined as 1000 nM.

Turning to `Cc1ccc2cc(-c3n[nH]c4ccc(NCC(C)C)cc34)[nH]c2c1`, the IC50 in test [1] is 860 nM.

Regarding `Cc1ccc2cc(-c3n[nH]c4ccc(NS(C)(=O)=O)cc34)[nH]c2c1`, the IC50 in the test “cells” was determined as 400 nM; in test [1] it was 36 nM.

With `c1ccc2c(-c3cc4ccc(N5CCOCC5)cc4[nH]3)n[nH]c2c1`, the IC50 in the test “cells” stood at 1200 nM; in test [1], 120 nM.

As for `Cc1ccc2cc(-c3n[nH]c4ccc(NC(=O)NCc5ccccc5)cc34)[nH]c2c1`, the IC50 in test [1] turned out to be 750 nM.

The compound `Cc1ccc2cc(-c3n[nH]c4ccc(NS(=O)(=O)c5ccc(F)cc5)cc34)[nH]c2c1` yielded an IC50 in the test “cells” of 2900 nM.

Take `COCC#Cc1ccc2cc(-c3n[nH]c4cccnc34)[nH]c2c1`: the IC50 in test [1] turned out to be 280 nM.

Take `Cc1ccc2cc(-c3n[nH]c4ccc(NS(=O)(=O)c5cccc(F)c5)cc34)[nH]c2c1`: half-maximal inhibition in the test “cells” (IC50) required 800 nM.

Compound `Cc1ccc2cc(-c3n[nH]c4ccc(NC5CCNCC5)cc34)[nH]c2c1` came in with a concentration for half-maximal inhibition (IC50) in “cells” of 90 nM.

Take `CN(Cc1ccco1)C(=O)c1ccc2cc(-c3n[nH]c4ccccc34)[nH]c2c1`: in test [1], the IC50 is 110 nM.

Regarding `Cc1ccc2cc(-c3n[nH]c4ccc(NC(=O)C5CCOCC5)cc34)[nH]c2c1`, the IC50 in test [1] worked out at 260 nM.

Regarding `c1cnc2c(-c3cc4ccc(CC5CCC5)cc4[nH]3)n[nH]c2c1`, the IC50 in test [1] was 350 nM.

Consider `CN(c1ccccc1)c1ccc2cc(-c3n[nH]c4ccccc34)[nH]c2c1`, for which, in test [1], the IC50 is 310 nM.

`CC(C)CN(C)C(=O)c1ccc2cc(-c3n[nH]c4ccccc34)[nH]c2c1` returned an IC50 in “cells” of 1600 nM.

As for `COCCc1ccc2cc(-c3n[nH]c4cccnc34)[nH]c2c1`, the IC50 in the test “cells” was 600 nM; in test [1] it was 70 nM.

In the case of `Cn1cncc1CNC(=O)c1ccc2cc(-c3n[nH]c4ccccc34)[nH]c2c1`, the concentration for half-maximal inhibition (IC50) in test [1] stood at 20 nM.

As to `CC(=O)N1CCC(Nc2ccc3[nH]nc(-c4cc5ccc(C)cc5[nH]4)c3c2)CC1`, in test [1], the IC50 turned out to be 370 nM.

`COc1cccc(S(=O)(=O)Nc2ccc3[nH]nc(-c4cc5ccc(C)cc5[nH]4)c3c2)c1`: the IC50 in the test “cells” turned out to be 900 nM.

Consider `Cc1ccc2cc(-c3n[nH]c4ccc(NCC5CCCCC5)cc34)[nH]c2c1`, for which the IC50 in test [1] amounted to 1700 nM.

For the compound `CCN(CC)C(=O)c1ccc2cc(-c3n[nH]c4ccccc34)[nH]c2c1`, the midpoint of inhibition in “cells”, the IC50, lay at 2100 nM.

With `COCCN(C)C(=O)c1ccc2cc(-c3n[nH]c4ccccc34)[nH]c2c1`, the IC50 in the test “cells” came out at 2000 nM; in test [1], 70 nM.

Take `COc1ccc(S(=O)(=O)Nc2ccc3[nH]nc(-c4cc5ccc(C)cc5[nH]4)c3c2)cc1`: inhibition in the test “cells” was half-maximal at 700 nM (IC50).

With `CN(C)CC#Cc1ccc2cc(-c3n[nH]c4cccnc34)[nH]c2c1`, in test [1], the IC50 amounted to 110 nM.

In the test “cells”, `O=C(NCC1CCCCC1)c1ccc2cc(-c3n[nH]c4ccccc34)[nH]c2c1` returned an IC50 of 9500 nM.

As for `Cc1ccc2cc(-c3n[nH]c4ccc(NC(=O)Nc5c(C)noc5C)cc34)[nH]c2c1`, the IC50 turned out to be 300 nM in the test “cells” and 72 nM in test [1].

Regarding `Cc1ccc2cc(-c3n[nH]c4cc(NC(=O)c5ccccc5)ccc34)[nH]c2c1`, the IC50 in test [1] is more than 50000 nM.

Regarding `Cc1ccc2cc(-c3n[nH]c4ccc(NC(=O)c5ccco5)cc34)[nH]c2c1`, the IC50 in test [1] was 530 nM.

Turning to `CCC(=O)Cc1ccc2cc(-c3n[nH]c4cccnc34)[nH]c2c1`, the IC50 is 1100 nM in the test “cells” and 100 nM in test [1].

With `Cc1ccc2cc(-c3n[nH]c4ccc(NC(=O)NC5CCCCC5)cc34)[nH]c2c1`, the IC50 in “cells” came to 3200 nM; in test [1], 780 nM.
